Laboratory results taken from article PMC6547440, “The HRP3 PWWP domain recognizes the minor groove of double-stranded DNA and recruits HRP3 to chromatin” (Nucleic Acids Research, 2019).
{FAM} = FAM (fluorescein) label on dsDNA for MST

Tests used:
[1] = test system: HepG2 cells; experiment: Fluorescence microscopy of GFP-HRP3 in HepG2 cells; format: cell-based, human; conditions: GFP fusion in HepG2 cells
Description: (§1) HepG2 (ATCC HB-8065) and HEK293T human embryonic kidney cells (ATCC #CRL-11268) were cultured in Dulbecco’s modified Eagle’s medium supplemented with 10% FBS. Stable overexpression of wild-type or mutant HRP3 in HepG2 cells was performed using FUGW lentiviral constructs expressing wild-type or mutant HRP3. Lentiviral vector infections ([47]) and plasmid transfections ([48]) were performed as previously described. Overexpression efficiency was determined by western blot.
The cells were first fixed with 4% paraformaldehyde in PBS buffer for 30 min at room temperature, and then washed with PBS buffer twice. The cells were permeabilized with 0.5% Triton X-100 in PBS buffer for 10 min followed with PBS washing twice. Then, the cells were incubated with1 μg/ml 4′,6-diamidino-2-phenylindole (DAPI) (C0060, Solarbio) in PBS for 5 min. After washing with PBS buffer twice, the cells were ready for microscopic observation. 3D structural illumination microscopy was performed using N-SIM Super-resolution Microscope System (Nikon) with an objective lens CFI Plan (Apochromat Lambda 40 ×, 0.95 numerical aperture; Nikon).

[2] = test system: chromatin of HepG2 cells; experiment: ChIP-Seq of GFP-HRP3 variants in HepG2 cells; format: cell-based, human
Description: as §1
For chromatin immunoprecipitation, HepG2 cells were cross-linked with 1% formaldehyde at 37°C for 10 min and quenched with 0.125 M glycine for 5 min at room temperature. ChIP was performed using a ChIP assay kit (Millipore) according to the manufacturer’s protocol. Antibodies used for ChIP were GFP (gta-20, Chromo-Tek) and H3K36me3 (ab9050, abcam).
ChIP-Seq data were aligned to human genome hg19 using Bowtie 1.0 allowing one mismatch. Two biological replicates were performed and combined for the analysis. Analysis was performed using the Galaxy ([49]) and Cistrome ([50]) Platform and via custom R scripts for Bioconductor ([51]). Peak calling was performed using MACS2. Promoter definitions were downloaded from the UCSC browser ([52]). DNase I hypersensitivity and MNase-Seq data from ENCODE (GSM816662, GSM920557) ([53]) were used.

[3] = molecular target: T1, HRP3 PWWP F48A (Homo sapiens, UniProt Q9Y3E1, F48A); experiment: NMR titration of H3K36me3 peptide with HRP3 PWWP F48A; format: binding; conditions: H3 residues 29–41, 20 mM PBS pH 6.9, 298 K
T1 construct: using ^15N-labelled HRP3 PWWP (residues 1–110) dissolved in buffer; 6xHis-SUMO (cleaved yes); made in house; host or cells: Escherichia coli Rosetta (DE3)
Description: (§2) All 2D ^1H-^15N HSQC NMR spectra were collected on the Bruker Avance III HD 600 MHz and 800 MHz spectrometers at 298 K. The NMR data were processed by NMRPipe ([39]) and analysed by KUJIRA ([40]) running with NMRview ([41]) softwares. Chemical shift perturbation experiments were carried out using ^15N-labelled HRP3 PWWP (residues 1–110) dissolved in buffer containing 20 mM PBS at pH 6.9, 20 mM NaCl and 2 mM DTT. A series of 2D ^1H-^15N HSQC spectra were recorded at HRP3 PWWP:H3K36me3/2/1/0 (residues 29–41) molar ratios of 1:0, 1:0.5, 1:1.5, 1:4, 1:6, 1:10, 1:15 and 1:20, respectively. The combined chemical shift perturbation was calculated using the following equation: Δδ = [(Δδ^1H)^2 + (Δδ^15N/5)^2]^1/2. Dissociation constants were calculated by fitting the data to a single-site ligand-binding model (SigmaPlot).

[4] = molecular target: T2, HRP3 PWWP E53A (Homo sapiens, UniProt Q9Y3E1, E53A); experiment: NMR titration of H3K36me3 peptide with HRP3 PWWP E53A; format: binding; conditions: H3 residues 29–41, 20 mM PBS pH 6.9, 298 K
T2 construct: using ^15N-labelled HRP3 PWWP (residues 1–110) dissolved in buffer; 6xHis-SUMO (cleaved yes); made in house; host or cells: Escherichia coli Rosetta (DE3)
Description: as §2

[5] = molecular target: T3, HRP3 PWWP Y22A (Homo sapiens, UniProt Q9Y3E1, Y22A); experiment: NMR titration of H3K36me3 peptide with HRP3 PWWP Y22A; format: binding; conditions: H3 residues 29–41, 20 mM PBS pH 6.9, 298 K
T3 construct: using ^15N-labelled HRP3 PWWP (residues 1–110) dissolved in buffer; 6xHis-SUMO (cleaved yes); made in house; host or cells: Escherichia coli Rosetta (DE3)
Description: as §2

[6] = molecular target: T4, HRP3 PWWP WT (Homo sapiens, UniProt Q9Y3E1); experiment: NMR titration of H3K36 peptides with wild-type HRP3 PWWP; format: binding; conditions: 15N-labelled HRP3 PWWP (1–110) WT, H3 residues 29–41, 20 mM PBS pH 6.9, 20 mM NaCl, 2 mM DTT, 298 K
T4 construct: using ^15N-labelled HRP3 PWWP (residues 1–110) dissolved in buffer; 6xHis-SUMO (cleaved yes); made in house; host or cells: Escherichia coli Rosetta (DE3)
Description: as §2

[7] = test system: HRP3 PWWP aromatic cage; experiment: Crystal structure of apo-form HRP3 PWWP (8–94), MES in aromatic cage; format: binding, human; conditions: 0.95 Å
Description: Crystallization was conducted using the sitting drop vapour diffusion method by mixing an equal volume of protein and well solution. Apo-form HRP3 PWWP (8–94) was crystallized with crystallization buffer containing 0.2 M ammonium sulfate, 0.1 M MES monohydrate, pH 6.5 and 30% w/v polyethylene glycol monomethyl ether 5000. The crystallization buffer containing 12% 2,3-butanediol was used as the cryoprotectant.
Datasets for all crystals were collected at the beamlines of the Shanghai Synchrotron Radiation Facility (SSRF). The datasets were processed using HKL2000 ([33]), and the structures were solved by molecular replacement using the programme PHENIX ([34]) with the HDGF2 PWWP domain (PDB number: 3EAE) as the search model. The initial model was rebuilt in COOT ([35]) and further refined by PHENIX.

[8] = test system: HRP3 PWWP; experiment: MST binding of 5′-FAM-labelled dsDNAs to HRP3 PWWP; set-up: species or system human; conditions: 16-mer-TA versus 16-mer-random and 16-mer-GC
Description: All Mircoscale thermophoresis (MST) experiments were performed on a Monolith NT115 machine with 20% MST power and 100% LED power. All protein and DNA samples were dissolved in solution containing 50 mM KCl, 10 mM sodium cacodylate at pH 6.5 and 2 mM DTT. The MST samples were prepared by mixing HRP3(1-110) at concentrations ranging from 3 nM to 100 μM into a solution containing 200 nM 5′-FAM-labelled dsDNA. Experiments were performed using Monolith NT115 Standard Treated Capillaries, MO-K002. Dissociation constants were fitted with the MO Affinity Analysis software.
The DNA sequences used in this assay are as follows: 5′-FAM-16TA: 5′-[…]-3′; 5′-FAM-16GC: 5′-[…]-3′; and 5′-FAM-16random: 5′-[…]-3′.

[9] = test system: HRP3 PWWP; experiment: DNA geometry analysis of the PWWP/DNA complex structures; set-up: species or system human
Description: DNA geometry was analysed with the 3DNA ([42]) and Curves+ ([43]) programs. Electrostatic potentials were calculated using the DelPhi program ([44]). The minor groove width was measured according to the method described ([45]). In detail, the distances between the ith (i indicates the number of the base from one chain) phosphate atom from one chain and the (i + 4)th atom from the paired chain were used to describe the minor groove width at the ith base. Electrostatic potentials were calculated at the midpoints between the above phosphate atom pairs used to calculate the minor groove widths.

[10] = test system: HRP3 PWWP; experiment: ITC of HRP3 PWWP with dsDNAs; format: binding, human; conditions: 20°C, HRP3 PWWP (1–110), 10 mM PBS pH 7.0, 50 mM NaCl, 2 mM β-mercaptoethanol
Description: Isothermal titration calorimetry-based measurements were carried out at 20°C with a MicroCal iTC200 instrument. HRP3 PWWP (1–110) and various dsDNAs were dialysed overnight at 4°C in titration buffer containing 10 mM phosphate-buffered saline (PBS) at pH 7.0, 50 mM NaCl and 2 mM β-mercaptoethanol. Calorimetric titration data were fitted with the Origin software under the algorithm of one binding-site model.

T4 sequence (Q9Y3E1 1-110): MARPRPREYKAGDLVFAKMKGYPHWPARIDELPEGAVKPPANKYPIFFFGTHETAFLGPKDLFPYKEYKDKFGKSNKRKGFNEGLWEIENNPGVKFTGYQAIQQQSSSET
T2 sequence (Q9Y3E1 1-110 E53A limits assumed): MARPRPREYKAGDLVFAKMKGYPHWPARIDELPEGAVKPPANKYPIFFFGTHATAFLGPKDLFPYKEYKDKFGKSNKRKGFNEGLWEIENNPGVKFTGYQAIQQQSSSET
T3 sequence (Q9Y3E1 1-110 Y22A): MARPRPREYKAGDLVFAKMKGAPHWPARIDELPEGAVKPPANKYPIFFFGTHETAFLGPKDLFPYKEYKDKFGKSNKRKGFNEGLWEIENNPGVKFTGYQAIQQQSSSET
T1 sequence (Q9Y3E1 1-110 F48A limits assumed): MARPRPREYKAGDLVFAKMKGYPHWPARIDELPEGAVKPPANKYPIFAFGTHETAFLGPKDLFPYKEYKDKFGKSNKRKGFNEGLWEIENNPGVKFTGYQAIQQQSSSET

HRP3: wild-type human HRP3 as GFP fusion protein in HepG2 cells
subcellular localisation [1]: enriched in the nucleus
DNase I hypersensitivity and nucleosome density of HRP3-enriched regions ([2]; ChIP-Seq versus ENCODE DNase I / MNase-Seq data): increased DNase I hypersensitivity and reduced nucleosome density
chromatin binding / recruitment by ChIP-Seq ([2]; ChIP-Seq with GFP antibody, HepG2, two biological replicates combined): enriched at promoters and gene bodies
specific DNA-binding motif enrichment ([2]; ChIP-Seq, HepG2): could not detect the enrichment of a specific DNA-binding motif

CC(C)[C@H](NC(=O)CNC(=O)CNC(=O)[C@@H](NC(=O)[C@H](C)NC(=O)[C@@H]1CCCN1C(=O)[C@H](C)N)[C@@H](C)O)C(=O)N[C@@H](CCCC[N+](C)(C)C)C(=O)N[C@@H](CCCCN)C(=O)N1CCC[C@H]1C(=O)N[C@@H](Cc1c[nH]cn1)C(=O)N[C@@H](CCCNC(=N)N)C(=O)N[C@@H](Cc1ccc(O)cc1)C(=O)O [H3K36me3]
Kd [3]: 9.4 ± 2.1 mM
Kd [4]: 8 ± 1.9 mM
Kd [5]: 21 ± 9 mM
Kd [6]: 1.4 ± 0.6 mM

O=S(=O)(O)CCN1CCOCC1 [MES]
position of bound molecule [7]: positioned in the middle of the aromatic cage

5′-TATATATATATATATA-3′ (DNA, 5' {FAM}, backbone not given here; double-stranded DNA, FAM label in MST assay) [16-mer-TA, 16-bp TA-rich dsDNA]
fold higher affinity [8]: 2–3 fold
average helical twist ([9]; 3DNA): 37.1 °
average propeller twist ([9]; 3DNA): −11.2 °
bending angle towards the minor groove per 6 bps ([9]; Curve+ software): 2.9 °
width of the minor groove, PWWP-binding region ([9]; crystal structure of complex): 10.7 Å
width of the minor groove, PWWP-free region ([9]; crystal structure of complex): 10.8 Å
TA-rich preference by ITC [10]: TA-rich preference was further verified by ITC-based measurements
